In ChEMBL document CHEMBL3832761, “MMV Pathogen Box Bioactivity Data” (2017):
In brackets after ≈: the same amount, converted by molar mass.

Experiments:
Plasmodium falciparum [1] = test: Antimalarial activity: Asexual Blood Stage Plasmodium falciparum 3D7 IC50 (uM); format: functional, organism-based
Plasmodium falciparum [2] = test: Antimalarial activity: Asexual Blood Stage Plasmodium falciparum Dd2 IC50 (uM); format: functional, organism-based
Plasmodium falciparum [3] = test: Antimalarial activity: Asexual Blood Stage Plasmodium falciparum W2 IC50 (uM); format: functional, organism-based
Plasmodium berghei [4] = test: Antimalarial activity: Liver Stage Plasmodium berghei sporozoite Luciferase assay: inhibition at 10 uM (%); format: functional
Plasmodium berghei [5] = test: Antimalarial activity: Liver Stage Plasmodium berghei sporozoite Luciferase assay IC50 (uM); format: functional, organism-based
Plasmodium falciparum [6] = test: Antimalarial activity: Gametocytes Plasmodium falciparum NF54 Gametocytes Stage V: inhibition at 10 uM (%); format: functional
Plasmodium falciparum [7] = test: Antimalarial activity: Gametocytes Plasmodium falciparum NF54 Gametocytes Stage V IC50 (uM); format: functional, organism-based
HepG2 [8] = test: Cytotoxicity data HepG2 CC20 (uM); format: functional
HepG2 [9] = test: HepG2 CC50 (uM) Cytotoxicity; format: functional; conditions: Homo sapiens
[10] = system: Mycobacterium tuberculosis; test: AntiMycobacterium tuberculosis activity 1-week GAST/Fe MIC (uM); format: functional; conditions: 168 h
[11] = system: Mycobacterium tuberculosis; test: AntiMycobacterium tuberculosis activity 2-week GAST/Fe MIC (uM); format: functional; conditions: 336 h
[12] = system: Mycobacterium tuberculosis; test: AntiMycobacterium tuberculosis activity 1-week 7H9/ADC/Tw MIC (uM); format: functional; conditions: 168 h
[13] = system: Mycobacterium tuberculosis; test: AntiMycobacterium tuberculosis activity 2-week 7H9/ADC/Tw MIC (uM); format: functional; conditions: 336 h
[14] = system: Mycobacterium tuberculosis; test: AntiMycobacterium tuberculosis activity 2-week Alamar Blue 7H9/ADC/Tw MIC (uM); format: functional; conditions: 336 h
[15] = system: Mycobacterium tuberculosis; test: AntiMycobacterium tuberculosis activity 1-week 7H9/glucose/BSA/Tx MIC (uM); format: functional; conditions: 168 h
[16] = system: Mycobacterium tuberculosis; test: AntiMycobacterium tuberculosis activity 2-week 7H9/glucose/BSA/Tx MIC (uM); format: functional; conditions: 336 h
[17] = system: Mycobacterium tuberculosis; test: AntiMycobacterium tuberculosis activity 1-week 7H9/DPPC/cholesterol/BSA/Tx MIC (uM); format: functional; conditions: 168 h
[18] = system: Mycobacterium tuberculosis; test: AntiMycobacterium tuberculosis activity 2-week 7H9/DPPC/cholesterol/BSA/Tx MIC (uM); format: functional; conditions: 336 h
[19] = system: Mycobacterium tuberculosis; test: AntiMycobacterium tuberculosis activity 1-week 7H9/cholesterol/BSA/Tx MIC (uM); format: functional; conditions: 168 h
[20] = system: Mycobacterium tuberculosis; test: AntiMycobacterium tuberculosis activity 2-week Alamar Blue 7H9/cholesterol/BSA/Tx MIC (uM); format: functional; conditions: 336 h
[21] = system: Mycobacterium tuberculosis; test: (§1) AntiMycobacterium tuberculosis activity day 10 in 7H9/2.5mM butyrate/pH6/0.1mM nitrite MIC90 (uM); format: functional; conditions: 240 h
[22] = system: Mycobacterium tuberculosis; test: AntiMycobacterium tuberculosis activity day 21 in 7H9/2.5mM butyrate/pH6/0.1mM nitrite MIC90 (uM); format: functional; conditions: 504 h
[23] = system: Mycobacterium tuberculosis; test: as §1; format: functional; conditions: 240 h; remark: listed apart in the source
[24] = system: Mycobacterium tuberculosis; test: AntiMycobacterium tuberculosis activity day 21 MIC99 in 7H9/2.5mM butyrate/pH6/0.1mM nitrite MIC99 (uM); format: functional; conditions: 504 h
HepG2 [25] = test: HepG2 galactose CC50 (uM) Cytotoxicity; format: functional
HepG2 [26] = test: HepG2 glucose CC50 (uM) Cytotoxicity; format: functional
HepG2 [27] = test: HepG2 inhibition at 10 uM (%) Cytotoxicity; format: functional; conditions: Homo sapiens

COc1cc(-c2cc(-c3ccc(S(C)(=O)=O)cc3)cnc2N)ccc1O
IC50 (Plasmodium falciparum [1]): 0.1 µM | IC50 (Plasmodium falciparum [2]): 0.14 µM | IC50 (Plasmodium falciparum [3]): 0.1 µM | Inhibition (Plasmodium berghei [4]): 100% | IC50 (Plasmodium berghei [5]): 2.52 µM | Inhibition (Plasmodium falciparum [6]): 94% | IC50 (Plasmodium falciparum [7]): 0.07 µM | CC20 (HepG2 [8]): 1.55 µM | CC50 (HepG2 [9]): > 10 µM

Cc1ccc2nc(C)c(-c3ccn(Cc4ccccc4)n3)n2c1
MIC [10]: 0.78 µM (≈ 0.236 µg/mL) | MIC [11]: 0.78 µM (≈ 0.236 µg/mL) | MIC [12]: 50 µM (≈ 15.1 µg/mL) | MIC [13]: > 50 µM | MIC [14]: 19 µM (≈ 5.75 µg/mL) | MIC [15]: 50 µM (≈ 15.1 µg/mL) | MIC [16]: ≥ 50 µM | MIC [17]: 12.5 µM (≈ 3.78 µg/mL) | MIC [18]: 37 µM (≈ 11.2 µg/mL) | MIC [19]: 9.4 µM (≈ 2.84 µg/mL) | MIC [20]: 4.7 µM (≈ 1.42 µg/mL) | MIC90 [21]: 6.25 µM (≈ 1.89 µg/mL) | MIC90 [22]: 50 µM (≈ 15.1 µg/mL) | MIC90 [23]: > 50 µM | MIC [24]: > 50 µM | CC50 (HepG2 [25]): 28.6 µM | CC50 (HepG2 [25]; Homo sapiens, HepG2): 36.1 µM | CC50 (HepG2 [26]): > 50 µM | CC50 (HepG2 [26]; Homo sapiens, HepG2): 35.5 µM

CC(=O)NC[C@H]1CN(c2ccc(N3CCSCC3)c(F)c2)C(=O)O1 [SUTEZOLID]
MIC [10]: 0.2 µM (≈ 0.0707 µg/mL) | MIC [11]: 0.6 µM (≈ 0.212 µg/mL) | MIC [12]: 1.2 µM (≈ 0.424 µg/mL) | MIC [13]: 1.2 µM (≈ 0.424 µg/mL) | MIC [14]: 0.78 µM (≈ 0.276 µg/mL) | MIC [15]: 0.6 µM (≈ 0.212 µg/mL) | MIC [16]: 1.2 µM (≈ 0.424 µg/mL) | MIC [17]: 0.6 µM (≈ 0.212 µg/mL) | MIC [18]: 1.2 µM (≈ 0.424 µg/mL) | MIC [19]: 0.39 µM (≈ 0.138 µg/mL) | MIC [20]: 0.78 µM (≈ 0.276 µg/mL) | MIC90 [21]: 0.19 µM (≈ 0.0671 µg/mL) | MIC90 [22]: 0.39 µM (≈ 0.138 µg/mL) | MIC90 [23]: 0.39 µM (≈ 0.138 µg/mL) | MIC [24]: 0.78 µM (≈ 0.276 µg/mL) | CC50 (HepG2 [25]; Homo sapiens, HepG2): > 50 µM | CC50 (HepG2 [26]; Homo sapiens, HepG2): > 50 µM

Cc1ccc(-c2nc(CN(Cc3ccccn3)C(C)C)cs2)o1
IC50 (Plasmodium falciparum [1]): > 2 µM | IC50 (Plasmodium falciparum [2]): > 2 µM | IC50 (Plasmodium falciparum [7]): 0.45 µM | inhibition at 10 µM (HepG2 [27]): 47%

CN1CCN(c2cc(-c3ccc(F)cc3)nc(-c3ccncc3)n2)CC1
MIC [10]: 19 µM (≈ 6.64 µg/mL) | MIC [11]: 12.5 µM (≈ 4.37 µg/mL) | MIC [12]: 37 µM (≈ 12.9 µg/mL) | MIC [13]: 25 µM (≈ 8.74 µg/mL) | MIC [14]: 12.5 µM (≈ 4.37 µg/mL) | MIC [15]: 12.5 µM (≈ 4.37 µg/mL) | MIC [16]: 9.4 µM (≈ 3.28 µg/mL) | MIC [17]: 6.25 µM (≈ 2.18 µg/mL) | MIC [18]: 6.25 µM (≈ 2.18 µg/mL) | MIC [19]: 12.5 µM (≈ 4.37 µg/mL) | MIC [20]: 6.25 µM (≈ 2.18 µg/mL) | MIC90 [21]: 6.25 µM (≈ 2.18 µg/mL) | MIC90 [22]: 12.5 µM (≈ 4.37 µg/mL) | MIC90 [23]: > 50 µM | MIC [24]: > 50 µM | CC50 (HepG2 [25]; Homo sapiens, HepG2): > 50 µM | CC50 (HepG2 [26]; Homo sapiens, HepG2): > 50 µM

Brc1cncc(-c2cc(NCCCn3ccnc3)nc(-c3ccccc3)n2)c1
MIC [10]: 12.5 µM (≈ 5.44 µg/mL) | MIC [11]: 12.5 µM (≈ 5.44 µg/mL) | MIC [12]: 37 µM (≈ 16.1 µg/mL) | MIC [13]: 25 µM (≈ 10.9 µg/mL) | MIC [14]: 12.5 µM (≈ 5.44 µg/mL) | MIC [15]: 4.7 µM (≈ 2.05 µg/mL) | MIC [16]: 12.5 µM (≈ 5.44 µg/mL) | MIC [17]: 6.25 µM (≈ 2.72 µg/mL) | MIC [18]: 9.4 µM (≈ 4.09 µg/mL) | MIC [19]: 9.4 µM (≈ 4.09 µg/mL) | MIC [20]: 6.25 µM (≈ 2.72 µg/mL) | MIC90 [21]: 12.5 µM (≈ 5.44 µg/mL) | MIC90 [22]: 12.5 µM (≈ 5.44 µg/mL) | MIC90 [23]: > 50 µM | MIC [24]: > 50 µM | CC50 (HepG2 [25]): > 50 µM | CC50 (HepG2 [25]; Homo sapiens, HepG2): 43.6 µM | CC50 (HepG2 [26]): 28.3 µM | CC50 (HepG2 [26]; Homo sapiens, HepG2): 16.4 µM

COc1cccc(-n2nnnc2S(=O)(=O)Cc2ccccc2)c1
MIC [10]: 1.2 µM (≈ 0.396 µg/mL) | MIC [11]: 1.56 µM (≈ 0.515 µg/mL) | MIC [12]: 25 µM (≈ 8.26 µg/mL) | MIC [13]: 37 µM (≈ 12.2 µg/mL) | MIC [14]: 25 µM (≈ 8.26 µg/mL) | MIC [15]: 12.5 µM (≈ 4.13 µg/mL) | MIC [16]: 37 µM (≈ 12.2 µg/mL) | MIC [17]: 25 µM (≈ 8.26 µg/mL) | MIC [18]: 50 µM (≈ 16.5 µg/mL) | MIC [19]: 25 µM (≈ 8.26 µg/mL) | MIC [20]: 50 µM (≈ 16.5 µg/mL) | MIC90 [21]: 3.12 µM (≈ 1.03 µg/mL) | MIC90 [22]: 6.25 µM (≈ 2.06 µg/mL) | MIC90 [23]: 6.25 µM (≈ 2.06 µg/mL) | MIC [24]: 6.25 µM (≈ 2.06 µg/mL) | CC50 (HepG2 [25]): 30.6 µM | CC50 (HepG2 [25]; Homo sapiens, HepG2): 28.5 µM | CC50 (HepG2 [26]): 17.9 µM | CC50 (HepG2 [26]; Homo sapiens, HepG2): 19.1 µM
